System: Xylella fastidiosa (Xf)
Format: cell-based
Conditions: crude ethyl acetate extract of culture supernatant; activity traced to metabolite by NMR and MS

C/C=C/c1cc2c(c(=O)o1)C(=O)[C@@H](O)[C@H](C)O2 [radicinin]
anti-Xf activity of extract / metabolite: inhibitory activity
